Publication PMC5886804 (Nature, 2018)

Legend:
[1] = biological target: MmTPC1 Leu11Ala/Ile12Ala (plasma membrane-targeting, considered as the wild type channel) (Mus musculus, UniProt Q9EQJ0, I12A/L11A/R540Q); experiment: inside-out patch clamp, HEK293 cells; type: cell-based
[2] = biological target: Mouse TPC1 (two-pore channel 1) (mouse) (UniProt Q9EQJ0); experiment: cryo-EM structure

Molecule | EC50 [1] [nM] | stoichiometry N [2]
CCCCCCCC(=O)OC[C@H](COP(=O)(O)O[C@@H]1[C@H](O)[C@H](OP(=O)(O)O)[C@@H](O)[C@H](OP(=O)(O)O)[C@H]1O)OC(=O)CCCCCCC [PtdIns(3,5)P2] | ~145 | –
Mouse TPC1 (two-pore channel 1) (from UniProt Q9EQJ0-1 1-817) (natural protein) | – | 2
